Reference: patent publication US10189863B2, “5,6-dihydro-4H-benzo[b]thieno-[2,3-d]azepine derivatives” (PULMOCIDE LIMITED, priority 2014, dated 2019)
pIC50: −log10 of the molar value.

How the values were obtained:
RSV A2 strain = test: Assessment of RSV induced CPE in HEp2 cells (RSV A2 strain); assay type: cell-based; conditions: human respiratory syncytial virus, HEp2 cells; for pIC50: HEp-2, 120 h, 1 MOI, 5 days, read-out: RSV A2 CPE IC50; for inhibition at 0.01 µg/mL / inhibition at 0.1 µg/mL: HEp-2; for inhibition at 0.01 µg/mL: Inhibition (%) at 0.01 μg/mL; for inhibition at 0.1 µg/mL: Inhibition (%) at 0.1 μg/mL, read-out: RSV A2 CPE % Inhibition
Method in brief: (§1)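 HEp2 cells were infected at MOI 1 with RSV A2 or RSV B Washington, with compound added at the same time (0.5% DMSO final). Incubation was 5 days for A2 and 6 days for B, then viability was read by resazurin fluorescence (545/590 nm) after 6 h. IC50, IC75 and IC90 came from concentration-response curves.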

[1] = Cell viability: resazurin assay; assay type: cell-based, human; conditions: human, HEp2 cells
Method in brief: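 HEp2 cells in 5% FBS DMEM exposed to compounds (0.5% DMSO final) for 5 days at 37 °C/5% CO2, then resazurin added for 6 h; fluorescence read at 545/590 nm. Percent viability loss calculated versus 0.5% DMSO vehicle, with increases shown as negative values; CC50 taken from concentration-response curves where appropriate.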

[2] = system: RSV A2 F-protein expression in BEAS2B bronchial epithelial cells; test: Assessment of RSV F protein expression in BEAS2B bronchial epithelial cells; assay type: cell-based; conditions: human respiratory syncytial virus, BEAS-2B, 72 h, read-out: RSV A2 F-protein IC50 (nM)
Description: Assessment of RSV F Protein Expression in BEAS2B Bronchial Epithelial Cells
An early event which follows the infection of epithelial cells by RSV is the expression of RSV F-protein on the cells' surface. BEAS2B cells (SV40-immortalised human bronchial epithelial cell line) were grown in 96 well plates. Once more than 70% confluent, cells were infected with RSV A2 (#0709161v, NCPV, Public Health England, Wiltshire) at an MOI of 0.01 in clear RPMI-1640 medium (Life technologies, Paisley, UK) with 2% FBS (Life technologies, Paisley, UK), and incubated for 3 days (37° C./5% CO2).
Supernatant was aspirated and the cells were fixed with 4% formaldehyde (100 μL in PBS solution) for 20 min, washed 3 times with washing buffer (200 μL; PBS containing 0.05% Tween-20) and incubated with blocking solution (100 μL; 5% Marvel milk in PBS) for 1 hr. Cells were then washed with washing buffer (200 μL) and incubated for 1 hr at 37° C. with anti-RSV (2F7; mouse monoclonal, lot 160290, Cat. No. ab43812, Abcam plc, Cambridge, UK) F-fusion protein antibody (50 μL; prepared at a 1:1000 dilution in 5% milk/PBS-tween). After washing, cells were incubated with an HRP-conjugated anti-mouse IgG antibody (50 μL prepared at a 1:2000 dilution in 5% milk in PBS; lot 00095437, Cat.No. P0447, Dako UK Ltd, Cambridgeshire, UK) for 1 hr. Cells were washed twice with washing buffer and once with PBS. TMB substrate (100 μL; substrate reagent pack lot 320436, Cat. No. DY999, R&D Systems, Inc. Abingdon, UK) was then added and the reaction was stopped by the addition of aq sulfuric acid (50 μL; 2N). The resultant signal was determined colourimetrically (OD: 450 nm with a reference wavelength of 655 nm) in a microplate reader (Multiskan FC®, ThermoFisher Scientific). Cells were then washed and 1% crystal violet solution (50 μL; lot SLB4576, Cat. No. HT90132-1L, Sigma-Aldrich) was applied for 30 min. After washing with PBS (200 μL) 3 times, 1% SDS (100 μL) was added to each well, and plates were shaken lightly for 1 hr prior to reading the absorbance at 595 nm. The measured OD450-655 readings were corrected for cell number by dividing the OD450-655 by the OD595 readings. The percentage inhibition for each well was calculated and the IC50 value derived from the concentration-response curve generated for each test compound.

RSV B Washington strain = test: Assessment of RSV induced CPE in HEp2 cells (RSV B Washington strain); assay type: cell-based; conditions: human respiratory syncytial virus, HEp2 cells; for pIC50: HEp-2, 144 h, 1 MOI, 6 days, read-out: RSV B CPE IC50; for inhibition at 0.1 µg/mL / inhibition at 1 µg/mL: HEp-2; for inhibition at 0.1 µg/mL: Inhibition (%) at 0.1 μg/mL; for inhibition at 1 µg/mL: Inhibition (%) at 1 μg/mL, read-out: RSV B CPE % Inhibition
Method in brief: as §1

SMILES	pIC50 (RSV A2 strain)	pIC50 (RSV B Washington strain)	inhibition at 0.01 µg/mL (RSV A2 strain)	CC50 at 5 days [1]	IC50 [2]	inhibition at 0.1 µg/mL (RSV B Washington strain)	inhibition at 0.1 µg/mL (RSV A2 strain)	inhibition at 1 µg/mL (RSV B Washington strain)
Cc1cccc(F)c1NC(=O)c1cc2c(s1)-c1ccccc1N(C(=O)c1ccc(NC(=O)c3cc4c(nc3N3CC5(CCOCC5)C3)CCC4)cc1)CC2 [Example 8, 6-(4-(2-(7-Oxa-2-azaspiro[3.5]nonan-2-yl)-6,7-dihydro-5H-cyclopenta[b]pyridine-3-carboxamido)benzoyl)-N-(2-fluoro-6-methylphenyl)-5,6-dihydro-4H-benzo[b]thieno[2,3-d]azepine-2-carboxamide]	9.57	8.89	88%	> 13500 nM	0.13 nM	100%	–	–
Cc1cccc(F)c1NC(=O)c1cc2c(s1)-c1ccccc1N(C(=O)c1ccc(NC(=O)c3cc4c(nc3N3CC5(CCOCC5)C3)CCCC4)cc1)CC2 [Example 9, 6-(4-(2-(7-Oxa-2-azaspiro[3.5]nonan-2-yl)-5,6,7,8-tetrahydroquinoline-3-carboxamido)benzoyl)-N-(2-fluoro-6-methylphenyl)-5,6-dihydro-4H-benzo[b]thieno[2,3-d]azepine-2-carboxamide]	9.41	8.85	92%	12500 nM	0.034 nM	100%	–	–
Cc1cccc(F)c1NC(=O)c1cc2c(s1)-c1ccccc1N(C(=O)c1ccc(NC(=O)c3cc4ccccc4nc3N3CC4(CCOCC4)C3)cc1)CC2 [Example 10, 6-(4-(2-(7-Oxa-2-azaspiro[3.5]nonan-2-yl)quinoline-3-carboxamido)benzoyl)-N-(2-fluoro-6-methylphenyl)-5,6-dihydro-4H-benzo[b]thieno[2,3-d]azepine-2-carboxamide]	9.96	8.82	–	> 13300 nM	0.48 nM	100%	100%	–
Cc1ccccc1NC(=O)c1cc2c(s1)-c1ccccc1N(C(=O)c1ccc(NC(=O)c3cccnc3N3CC4(CCOCC4)C3)cc1)CC2 [Example 14, 6-(4-(2-(7-oxa-2-azaspiro[3.5]nonan-2-yl)nicotinamido)benzoyl)-N-(o-tolyl)-5,6-dihydro-4H-benzo[b]thieno[2,3-d] azepine-2-carboxamide]	9.19	7.26	–	> 14600 nM	0.41 nM	–	100%	92%
O=C(Nc1ccccc1F)c1cc2c(s1)-c1ccccc1N(C(=O)c1ccc(NC(=O)c3cccnc3N3CC4(CCOCC4)C3)cc1)CC2 [Example 15, 6-(4-(2-(7-oxa-2-azaspiro[3.5]nonan-2-yl)nicotinamido)benzoyl)-N-(2-fluorophenyl)-5,6-dihydro-4H-benzo[b]thieno [2,3-d]azepine-2-carboxamide]	9.40	7.69	–	> 14500 nM	0.36 nM	–	100%	85%
O=C(Nc1ccccc1Cl)c1cc2c(s1)-c1ccccc1N(C(=O)c1ccc(NC(=O)c3cccnc3N3CC4(CCOCC4)C3)cc1)CC2 [Example 16, 6-(4-(2-(7-oxa-2-azaspiro[3.5]nonan-2-yl)nicotinamido)benzoyl)-N-(2-chlorophenyl)-5,6-dihydro-4H-benzo[b]thieno [2,3-d]azepine-2-carboxamide]	9.12	6.85	–	> 14200 nM	0.93 nM	–	100%	63%

More lines, main results first:

pIC50 (RSV A2 strain)	pIC50 (RSV B Washington strain)	SMILES	inhibition at 0.01 µg/mL (RSV A2 strain)	CC50 at 5 days [1]	IC50 [2]	inhibition at 0.1 µg/mL (RSV B Washington strain)	inhibition at 0.1 µg/mL (RSV A2 strain)	inhibition at 1 µg/mL (RSV B Washington strain)
9.30	7.71	Cc1cccc(F)c1NC(=O)c1cc2c(s1)-c1ccccc1N(C(=O)c1ccc(NC(=O)c3cc4sccc4nc3N3CC4(CCOCC4)C3)cc1)CC2 [Example 89, 6-(4-(5-(7-oxa-2-azaspiro[3.5]nonan-2-yl)thieno[3,2-b]pyridine-6-carboxamido)benzoyl)-N-(2-fluoro-6-methyl-phenyl)-5,6-dihydro-4H-benzo[b]thieno[2,3-d]azepine-2-carboxamide]	100%	> 13200 nM	–	100%	–	–
8.74	6.29	Cc1cnc(N2CC3(COC3)C2)c(C(=O)Nc2ccc(C(=O)N3CCc4cc(C(=O)Nc5c(C)cccc5F)sc4-c4ccccc43)cc2)c1 [Example 90, N-(2-fluoro-6-methylphenyl)-6-(4-(5-methyl-2-(2-oxa-6-azaspiro[3.3]heptan-6-yl)nicotinamido)benzoyl)-5,6-dihydro-4H-benzo[b]thieno[2,3-d]azepine-2-carboxamide]	100%	> 14500 nM	–	–	–	99%
8.89	6.41	Cc1cnc(N2CCC3(CC2)COC3)c(C(=O)Nc2ccc(C(=O)N3CCc4cc(C(=O)Nc5c(C)cccc5F)sc4-c4ccccc43)cc2)c1 [Example 91, N-(2-fluoro-6-methylphenyl)-6-(4-(5-methyl-2-(2-oxa-7-azaspiro[3.5]nonan-7-yl)nicotinamido)benzoyl)-5,6-dihydro-4H-benzo[b]thieno[2,3-d]azepine-2-carboxamide]	100%	> 14000 nM	–	–	–	100%
9.77	7.22	Cc1cnc(N2CCC3(CC2)COC3)c(C(=O)Nc2ccc(C(=O)N3CCc4cc(C(=O)Nc5c(F)cccc5F)sc4-c4ccccc43)cc2)c1 [Example 92, N-(2,6-difluorophenyl)-6-(4-(5-methyl-2-(2-oxa-7-aza-spiro[3.5]nonan-7-yl)nicotinamido)benzoyl)-5,6-dihydro-4H-benzo[b]thieno[2,3-d]azepine-2-carboxamide]	93%	> 13900 nM	–	–	–	100%
9.25	7.23	Cc1cnc(N2CCC3(CC2)COC3)c(C(=O)Nc2ccc(C(=O)N3CCc4cc(C(=O)Nc5c(F)cccc5Cl)sc4-c4ccccc43)cc2)c1 [Example 93, N-(2-chloro-6-fluorophenyl)-6-(4-(5-methyl-2-(2-oxa-7-azaspiro[3.5]nonan-7-yl)nicotinamido)benzoyl)-5,6-dihydro-4H-benzo[b]thieno[2,3-d]azepine-2-carboxamide]	98%	> 13600 nM	–	–	–	100%
8.85	6.09	Cc1cnc(N2CCC3(CC2)COC3)c(C(=O)Nc2ccc(C(=O)N3CCc4cc(C(=O)Nc5c(F)cccc5C(F)(F)F)sc4-c4ccccc43)cc2)c1 [Example 94, N-(2-fluoro-6-(trifluoromethyl)phenyl)-6-(4-(5-methyl-2-(2-oxa-7-azaspiro[3.5]nonan-7-yl)nicotinamido)benzoyl)-5,6-dihydro-4H-benzo[b]thieno[2,3-d]azepine-2-carboxamide]	100%	> 13000 nM	–	–	–	54%
8.62	< 5.87	Cc1cnc(N2CCC3(CCOCC3)CC2)c(C(=O)Nc2ccc(C(=O)N3CCc4cc(C(=O)Nc5c(C)cccc5F)sc4-c4ccccc43)cc2)c1 [Example 95, N-(2-fluoro-6-methylphenyl)-6-(4-(5-methyl-2-(3-oxa-9-azaspiro[5.5]undecan-9-yl)nicotinamido)benzoyl)-5,6-di-hydro-4H-benzo[b]thieno[2,3-d]azepine-2-carboxamide]	100%	> 13400 nM	–	–	–	27%
